Non-standard residues stand in square brackets, D forms with d. Residues, ends and D or L forms follow the SMILES beside them. No end group written: not given here. 1Nal = N[C@@H](Cc1cccc2ccccc12)C(=O)O; Aib = CC(C)(N)C(=O)O
Tests used:
[1] = biological target: T1, LCAT (purified from human plasma) (Homo sapiens, UniProt P04180); assay: LCAT activation assay; assay type: biochemical; conditions: LCAT activation as compared with native human ApoA-I (= 100%), equivalent masses
T1 construct: from tissue; host or cells: human plasma
T1 sequence (P04180 25-440): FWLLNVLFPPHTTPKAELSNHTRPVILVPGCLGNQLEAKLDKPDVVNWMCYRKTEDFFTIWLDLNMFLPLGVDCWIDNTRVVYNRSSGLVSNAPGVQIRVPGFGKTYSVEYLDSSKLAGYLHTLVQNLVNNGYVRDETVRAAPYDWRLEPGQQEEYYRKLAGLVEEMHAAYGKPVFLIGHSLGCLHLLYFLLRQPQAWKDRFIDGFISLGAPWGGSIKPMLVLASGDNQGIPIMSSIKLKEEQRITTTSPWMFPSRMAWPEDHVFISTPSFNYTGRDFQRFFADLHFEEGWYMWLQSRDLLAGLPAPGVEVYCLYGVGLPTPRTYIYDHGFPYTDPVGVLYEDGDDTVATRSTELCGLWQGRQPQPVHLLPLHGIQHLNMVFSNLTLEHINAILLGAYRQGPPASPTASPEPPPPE
Method in brief: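 Activity was expressed as percentage conversion of radiolabelled cholesterol to cholesteryl ester, normalised to native ApoA-I as 100%. LCAT purified from human plasma was added to peptide-preincubated EPC or POPC/cholesterol (20:1) small unilamellar vesicles at pH 7.4. Specific activity is the peptide concentration reaching the conversion plateau at a fixed timepoint.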

[2] = Circular dichroism helicity determination; assay type: physicochemical; conditions: percent helicity; for He (%) TFE: 5 μM peptide, 90% vol TFE; for He (%) TFE / He (%) SUVs: 37° C.; for He (%) free: unbound peptide 5 μM in 5 mM phosphate buffer, pH 7.4, 37° C.; for He (%) SUVs: peptide-SUV complexes (20:1 EPC:Chol., Ri=30 and Ri=50); for He (%) mics: peptide-micelle complexes, Ri=100, 37° C.
Description: Far UV circular dichroism spectra were recorded between 190 and 260 nm (in 0.5 nm or 0.2 nm increments) with a AVIV62DS spectrometer (AVIV Associates, Lakewood, N.J., USA) equipped with a thermoelectric cell holder and sample changer. The instrument was calibrated with (+)-10-[…]. Between one and three scans were collected for each sample, using 10 cm, 5 cm, 1 cm and 0.1 cm path length quartz Suprasil cells, respectively, for peptide concentrations of 10^−7 M to 10^−4 M. The bandwidth was fixed at 1.5 nm and the scan speed to 1s per wavelength step. The reported data are the mean of at least 2 or 3 independent measurements.
After background substraction, spectra were converted to molar ellipticity (θ) per residue in deg. […] dmol^−1. The peptide concentration was determined by amino acid analysis and also by absorption spectrometry on a Perkin Elmer Lambda 17 UV/Visible spectrophotometer when the peptide contained a chromophore (tryptophane, dansyl, naphtylalanine).
CD spectra were obtained with free, unbound peptide (5 μM in 5 mM phosphate buffer, pH 7.4); with peptide-SUV complexes (20:1 EPC:Chol., Ri=30 and Ri=50); with peptide-micelle complexes (1-myristoyl-2-hydroxy-sn-glycero-3-phosphatidyl choline, Ri=100); and with free, unbound peptide in the presence of 2,2,2-trifluoroethanol (TFE) (5 μM peptide, 90% vol TFE).
The SUVs were obtained by dispersing the lipids (10 mM, 20:1 EPC:Chol., Avanti Polar Lipids, AL) in phosphate buffer (5 mM, pH 7.4) with bubbling N2 for 5 min., followed by sonication (1.5 hr.) in a bath sonicator. The homogeneity of the preparation was checked by FPLC.
The micelles were obtained by dispersing the lipid (6 mM 1-myristoyl-2-hydroxy-sn-glycero-3-phosphatidyl choline, Avanti Polar Lipids, AL) in phosphate buffer (5 mM, pH 7.4) with bubbling N2 for 5 min., followed by vortexing.
To obtain the peptide-SUV complexes, SUVs were added to the peptide (5 μM in 5 mM phosphate buffer, pH 7.4) at a phospholipid-peptide molar ratio (Ri) of 30 or 50.
To obtain the peptide-micelle complexes, micelles were added to the peptide (5 μM in 5 mM phosphate buffer, pH 7.4) at a Ri of 100.
All spectra were recorded at 37° C.
The degree of helicity of the peptides in the various conditions was determined from the mean residue ellipticity at 222 nm (Chen et al., 1974, Biochemistry 13:3350-3359) or by comparing the CD spectra obtained to reference spectra available on databases (16 helical reference spectra from Provencher & Glockner, 1981, Biochemistry 20:33-37; denatured protein reference spectra from Venyaminov et al., 1993, Anal. Biochem. 214:17-24) using the CONTIN curve-fitting algorithm version 2DP, CD-1 pack (August 1982) (Provencher, 1982, Comput. Phys. Commun. 27:213-227, 229-242). Acceptable fit was determined using the statistical analysis methodology provided by the CONTIN algorithm. The error of all methods was ±5% helicity.

Row | Molecule | ACTIVITY (%) LCAT [1] [%] | He (%) TFE [2] [%] | He (%) free [2] [%] | He (%) SUVs [2] [%] | He (%) mics [2] [%]
1 | CC(C)C[C@H](NC(=O)[C@H](C)NC(=O)[C@H](CCC(=O)O)NC(=O)[C@H](CC(C)C)NC(=O)C(C)(C)NC(=O)[C@H](CCC(=O)O)NC(=O)[C@H](CC(N)=O)NC(=O)[C@H](CC(C)C)NC(=O)[C@H](CCCCN)NC(=O)[C@H](CCC(=O)O)NC(=O)[C@H](CCCNC(=N)N)NC(=O)[C@H](Cc1ccccc1)NC(=O)[C@H](CC(C)C)NC(=O)[C@H](CC(=O)O)NC(=O)[C@H](CC(C)C)NC(=O)[C@@H](NC(=O)[C@@H]1CCCN1)C(C)C)C(=O)N[C@@H](CCCCN)C(=O)N[C@@H](CCC(N)=O)C(=O)N[C@@H](CCCCN)C(=O)N[C@@H](CC(C)C)C(=O)N[C@@H](CCCCN)C(=O)O [compound 46, PVLDLFREKLNEXLEALKQKLK] (H-PVLDLFREKLNE[Aib]LEALKQKLK-OH) | 23 | 85 | 30 | 58 | 86
2 | PVLELFENLLERGLDALQKKLK [peptide 154] | 39 | 80 | 13 | 25 | 76
3 | CC(C)C[C@@H](NC(=O)[C@@H](C)NC(=O)[C@@H](CCC(=O)O)NC(=O)[C@@H](CC(C)C)NC(=O)C(C)(C)NC(=O)[C@@H](CCC(=O)O)NC(=O)[C@@H](CC(N)=O)NC(=O)[C@@H](CC(C)C)NC(=O)[C@@H](CC(C)C)NC(=O)[C@@H](CCC(=O)O)NC(=O)[C@@H](CCCNC(=N)N)NC(=O)[C@@H](Cc1ccccc1)NC(=O)[C@@H](CC(C)C)NC(=O)[C@@H](CC(=O)O)NC(=O)[C@@H](CC(C)C)NC(=O)[C@H](NC(=O)[C@H]1CCCN1)C(C)C)C(=O)N[C@H](CCCCN)C(=O)N[C@H](CCC(N)=O)C(=O)N[C@H](CCCCN)C(=O)N[C@H](CC(C)C)C(=O)N[C@H](CCCCN)C(=O)O [compound 96, pvldlfrellneXlealkqklk] (H-[dP][dV][dL][dD][dL][dF][dR][dE][dL][dL][dN][dE][Aib][dL][dE][dA][dL][dK][dQ][dK][dL][dK]-OH) | 5 | 81 | 52 | 63 | 85
4 | PVLELFENWLERLLDALQKKLK [compound 162] | 27 |  | 68 | 81 | 83
5 | CC(C)C[C@H](NC(=O)[C@H](CCCCN)NC(=O)[C@H](CCC(N)=O)NC(=O)[C@H](CCCCN)NC(=O)[C@H](CC(C)C)NC(=O)[C@H](Cc1cccc2ccccc12)NC(=O)[C@H](CCC(=O)O)NC(=O)[C@H](CC(C)C)NC(=O)[C@H](CC(C)C)NC(=O)[C@H](CCC(=O)O)NC(=O)[C@H](CC(N)=O)NC(=O)[C@H](CC(C)C)NC(=O)[C@H](CC(C)C)NC(=O)[C@H](CCC(=O)O)NC(=O)[C@H](CCCNC(=N)N)NC(=O)[C@H](Cc1ccccc1)NC(=O)[C@H](CC(C)C)NC(=O)[C@H](CC(=O)O)NC(=O)[C@H](CC(C)C)NC(=O)[C@@H](NC(=O)[C@@H]1CCCN1)C(C)C)C(=O)N[C@@H](CCCCN)C(=O)O [peptide 1, PVLDLFRELLNELLEZLKQKLK] (H-PVLDLFRELLNELLE[1Nal]LKQKLK-OH) | 120 | 69 | 77 | 81 | 85
6 | CC(C)C[C@@H](NC(=O)[C@H](N)CCCCN)C(=O)N[C@H](CCCCN)C(=O)N[C@H](CCC(N)=O)C(=O)N[C@H](CCCCN)C(=O)N[C@H](CC(C)C)C(=O)N[C@H](C)C(=O)N[C@H](CCC(=O)O)C(=O)N[C@H](CC(C)C)C(=O)N[C@H](CC(C)C)C(=O)N[C@H](CCC(=O)O)C(=O)N[C@H](CC(N)=O)C(=O)N[C@H](CC(C)C)C(=O)N[C@H](CC(C)C)C(=O)N[C@H](CCC(=O)O)C(=O)N[C@H](CCCNC(=N)N)C(=O)N[C@H](Cc1ccccc1)C(=O)N[C@H](CC(C)C)C(=O)N[C@H](CC(=O)O)C(=O)N[C@H](CC(C)C)C(=O)N[C@@H](C(=O)N1CCC[C@@H]1C(=O)O)C(C)C [compound 107, klkqklaellenllerfldlvp] | 0 | 77 |  |  | 
7 | DWFKAFYDKVAEKFKEAF [peptide 243, reference compound] | 5 |  | 10 | 50 | 64
8 | PVLDLFRELLEELLKALKKKLK [compound 39] | 25 | 72 | 66 | 68 | 69
9 | PVLDEFREKLNEPLEALKQKLK [compound 113] | 0 |  | 6 |  | 22
10 | PLDLFRELLNELLEALKQKLK [compound 85] | 7 | 69 | 58 | 64 | 61
11 | PVLDLFRELLEELKQKLK [compound 210] | 46 | 53 | 20 | 37 | 63
12 | DWLKAFYDKVFEKFKEFF [peptide 245, reference compound] | 4 |  | 38 | 70 | 77
13 | CC(C)C[C@H](NC(=O)[C@H](C)NC(=O)[C@H](CCC(=O)O)NC(=O)[C@H](CC(C)C)NC(=O)C(C)(C)NC(=O)[C@H](CCC(=O)O)NC(=O)[C@H](Cc1ccc(O)cc1)NC(=O)[C@H](CC(C)C)NC(=O)[C@H](CC(C)C)NC(=O)[C@H](CCC(=O)O)NC(=O)[C@H](CCCNC(=N)N)NC(=O)[C@H](Cc1ccccc1)NC(=O)[C@H](CCC(=O)O)NC(=O)[C@H](CC(=O)O)NC(=O)[C@H](CC(C)C)NC(=O)[C@@H](NC(=O)[C@@H]1CCCN1)C(C)C)C(=O)N[C@@H](CCCCN)C(=O)N[C@@H](CCC(N)=O)C(=O)N[C@@H](CCCCN)C(=O)N[C@@H](CC(C)C)C(=O)N[C@@H](CCCCN)C(=O)O [compound 70, PVLDEFRELLYEXLEALKQKLK] (H-PVLDEFRELLYE[Aib]LEALKQKLK-OH) | 12 | 66 | 27 | 33 | 78

From US7273848B2, “Apolipoprotein A-I agonists and their use to treat dyslipidemic disorders” (priority 1997, dated 2007)
